Values joined by “and” are separate entries in the source; they are usually repeats but may differ in a detail not shown here. Identical values can stand only once. Numbers after ± are expanded uncertainties.
Conditions: Liquid, Vibrating tube method

CCCCCCC(=O)OCC(COC(=O)CCCCCC)(COC(=O)CCCCCC)COC(=O)CCCCCC [pentaerythritol tetraheptanoate]
Conditions	mass density
343.15 K, 32525 kPa	962.8 ± 1.2 kg/m3
343.15 K, 32544 kPa	962.9 ± 1.2 kg/m3
343.15 K, 32576 kPa	962.8 ± 1.2 kg/m3
343.15 K, 32608 kPa	962.8 ± 1.2 kg/m3
343.15 K, 32640 kPa	962.9 ± 1.2 kg/m3
343.15 K, 32679 kPa	962.8 ± 1.6 kg/m3
343.15 K, 32711 kPa	963 ± 1.2 kg/m3
343.15 K, 32736 kPa	963 ± 1.2 kg/m3
343.15 K, 32750 kPa	963.1 ± 1.2 kg/m3
343.15 K, 32774 kPa	963.1 ± 1.2 kg/m3
343.15 K, 32782 kPa	963 ± 1.2 kg/m3
343.15 K, 32814 kPa	963.1 ± 1.2 kg/m3
343.15 K, 32815 kPa	963 ± 1.2 kg/m3
343.15 K, 32853 kPa	963.1 ± 1.2 kg/m3
343.15 K, 32854 kPa	962.9 ± 1.2 kg/m3
343.15 K, 32887 kPa	962.9 ± 1.2 kg/m3
343.15 K, 32900 kPa	963.1 ± 1.2 kg/m3
343.15 K, 32920 kPa	963.1 ± 1.2 kg/m3
343.15 K, 32940 kPa	963 ± 1.2 kg/m3
343.15 K, 32953 kPa	963.1 ± 1.2 kg/m3
343.15 K, 32980 kPa	963 ± 1.2 kg/m3
343.15 K, 32993 kPa	963.1 ± 1.2 kg/m3
343.15 K, 33027 kPa	963.1 ± 1.2 kg/m3
343.15 K, 33028 kPa	963.2 ± 1.2 kg/m3
343.15 K, 33060 kPa	963.1 ± 1.2 kg/m3
343.15 K, 33068 kPa	963.1 ± 1.2 kg/m3
343.15 K, 33100 kPa	963.1 ± 1.2 kg/m3
343.15 K, 33109 kPa	963.1 ± 1.2 kg/m3
343.15 K, 33134 kPa	963.3 ± 1.2 kg/m3
343.15 K, 33174 kPa	963.3 ± 1.2 kg/m3
343.15 K, 33208 kPa	963.4 ± 1.2 kg/m3
343.15 K, 33242 kPa	963.2 ± 1.2 kg/m3
343.15 K, 33276 kPa	963.3 ± 1.2 kg/m3
343.15 K, 33317 kPa	963.3 ± 1.2 kg/m3
343.15 K, 33351 kPa	963.3 ± 1.2 kg/m3
343.15 K, 33385 kPa	963.4 ± 1.2 kg/m3
343.15 K, 33425 kPa	963.3 ± 1.2 kg/m3
343.15 K, 33459 kPa	963.4 ± 1.2 kg/m3
343.15 K, 33500 kPa	963.3 ± 1.2 kg/m3
343.15 K, 33535 kPa	963.4 ± 1.2 kg/m3
343.15 K, 33569 kPa	963.4 ± 1.2 kg/m3
343.15 K, 33604 kPa	963.4 ± 1.2 kg/m3
343.15 K, 33645 kPa	963.5 ± 1.2 kg/m3
343.15 K, 33679 kPa	963.4 ± 1.2 kg/m3
343.15 K, 33714 kPa	963.4 ± 1.2 kg/m3
343.15 K, 33721 kPa	963.6 ± 1.2 kg/m3
343.15 K, 33756 kPa	963.6 ± 1.2 kg/m3
343.15 K, 33772 kPa	963.8 ± 1.2 kg/m3
343.15 K, 33791 kPa	963.6 ± 1.2 kg/m3
343.15 K, 33816 kPa	963.7 ± 1.2 kg/m3
343.15 K, 33833 kPa	963.5 ± 1.2 kg/m3
343.15 K, 33862 kPa	963.6 ± 1.2 kg/m3
343.15 K, 33869 kPa	963.6 ± 1.2 kg/m3
343.15 K, 33906 kPa	963.5 ± 1.2 kg/m3
343.15 K, 33942 kPa	963.6 ± 1.2 kg/m3
343.15 K, 33949 kPa	963.7 ± 1.2 kg/m3
343.15 K, 33986 kPa	963.7 ± 1.2 kg/m3
343.15 K, 34002 kPa	963.7 ± 1.2 kg/m3
343.15 K, 34024 kPa	963.7 ± 1.2 kg/m3
343.15 K, 34048 kPa	963.7 ± 1.2 kg/m3
343.15 K, 34062 kPa	963.7 ± 1.2 kg/m3
343.15 K, 34095 kPa	963.8 ± 1.2 kg/m3
343.15 K, 34108 kPa	963.8 ± 1.2 kg/m3
343.15 K, 34139 kPa	963.8 ± 1.2 kg/m3
343.15 K, 34152 kPa	963.8 ± 1.2 kg/m3
343.15 K, 34166 kPa	963.8 ± 1.2 kg/m3
343.15 K, 34187 kPa	963.8 ± 1.2 kg/m3
343.15 K, 34202 kPa	963.9 ± 1.2 kg/m3
343.15 K, 34208 kPa	964 ± 1.2 kg/m3
343.15 K, 34229 kPa	963.8 ± 1.2 kg/m3
343.15 K, 34254 kPa	963.7 ± 1.2 kg/m3
343.15 K, 34259 kPa	963.9 ± 1.2 kg/m3
343.15 K, 34276 kPa	963.7 ± 1.2 kg/m3
343.15 K, 34290 kPa	964 ± 1.2 kg/m3
343.15 K, 34314 kPa	964 ± 1.2 kg/m3
343.15 K, 34315 kPa	963.9 ± 1.2 kg/m3
343.15 K, 34342 kPa	964 ± 1.2 kg/m3
343.15 K, 34365 kPa	963.9 ± 1.2 kg/m3 and 964.1 ± 1.2 kg/m3
343.15 K, 34390 kPa	964 ± 1.2 kg/m3
343.15 K, 34409 kPa	963.8 ± 1.2 kg/m3
343.15 K, 34414 kPa	964.1 ± 1.2 kg/m3
343.15 K, 34444 kPa	964 ± 1.2 kg/m3
343.15 K, 34469 kPa	963.9 ± 1.2 kg/m3
343.15 K, 34483 kPa	964 ± 1.2 kg/m3
343.15 K, 34500 kPa	964 ± 1.2 kg/m3
343.15 K, 34527 kPa	964.1 ± 1.2 kg/m3
343.15 K, 34534 kPa	964.1 ± 1.2 kg/m3
343.15 K, 34556 kPa	964 ± 1.2 kg/m3
343.15 K, 34566 kPa	964.1 ± 1.2 kg/m3
343.15 K, 34584 kPa	964.1 ± 1.2 kg/m3
343.15 K, 34616 kPa	964.2 ± 1.2 kg/m3
343.15 K, 34624 kPa	964.2 ± 1.2 kg/m3
343.15 K, 34625 kPa	964.2 ± 1.2 kg/m3
343.15 K, 34651 kPa	964.1 ± 1.2 kg/m3
343.15 K, 34654 kPa	964.2 ± 1.2 kg/m3
343.15 K, 34656 kPa	964.2 ± 1.2 kg/m3
343.15 K, 34659 kPa	964.1 ± 1.2 kg/m3
343.16 K, 100.2 kPa	940.6 ± 1.1 kg/m3
343.16 K, 100.5 kPa	940.7 ± 1.1 kg/m3 and 940.6 ± 1.1 kg/m3
343.16 K, 100.7 kPa	940.6 ± 1.1 kg/m3 and 940.7 ± 1.1 kg/m3
343.16 K, 101 kPa	940.7 ± 1.1 kg/m3
343.16 K, 101.7 kPa	940.6 ± 1.1 kg/m3
343.16 K, 103.8 kPa	940.6 ± 1.1 kg/m3
343.16 K, 104.7 kPa	940.6 ± 1.1 kg/m3
343.16 K, 160.8 kPa	940.8 ± 1.1 kg/m3
343.16 K, 221.5 kPa	940.6 ± 1.1 kg/m3
343.16 K, 300.9 kPa	940.7 ± 1.1 kg/m3
343.16 K, 1395.6 kPa	941.7 ± 1.1 kg/m3
343.16 K, 1419.9 kPa	941.7 ± 1.1 kg/m3
343.16 K, 4555 kPa	944.1 ± 1.2 kg/m3
343.16 K, 5039.3 kPa	944.4 ± 1.2 kg/m3
343.16 K, 13687 kPa	950.5 ± 1.2 kg/m3
